Target: P450 19A1 (aromatase) (Homo sapiens, UniProt P11511)
Assay: competitive ABPP: blockade of probe […] labeling, in-gel fluorescence
Type: biochemical

Chain of P450 19A1 (aromatase) (P16435 2-677): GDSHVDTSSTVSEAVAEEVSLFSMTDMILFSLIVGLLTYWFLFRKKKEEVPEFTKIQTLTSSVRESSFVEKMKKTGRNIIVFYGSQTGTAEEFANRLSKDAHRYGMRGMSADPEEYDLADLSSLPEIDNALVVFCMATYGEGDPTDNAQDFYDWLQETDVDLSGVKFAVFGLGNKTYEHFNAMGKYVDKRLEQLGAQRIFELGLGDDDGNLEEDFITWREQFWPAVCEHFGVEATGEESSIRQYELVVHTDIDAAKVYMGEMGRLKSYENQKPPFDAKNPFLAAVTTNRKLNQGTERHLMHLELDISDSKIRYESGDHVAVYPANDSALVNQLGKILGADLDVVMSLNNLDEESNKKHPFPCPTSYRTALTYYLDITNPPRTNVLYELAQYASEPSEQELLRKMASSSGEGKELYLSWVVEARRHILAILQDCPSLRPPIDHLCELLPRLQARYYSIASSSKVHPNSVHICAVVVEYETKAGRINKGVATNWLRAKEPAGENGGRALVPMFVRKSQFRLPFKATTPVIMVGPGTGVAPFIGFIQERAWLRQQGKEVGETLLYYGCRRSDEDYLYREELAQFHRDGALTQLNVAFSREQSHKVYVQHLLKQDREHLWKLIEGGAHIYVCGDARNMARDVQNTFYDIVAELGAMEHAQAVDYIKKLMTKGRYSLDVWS
Chain of P450 19A1 (aromatase) (P11511 whole entry): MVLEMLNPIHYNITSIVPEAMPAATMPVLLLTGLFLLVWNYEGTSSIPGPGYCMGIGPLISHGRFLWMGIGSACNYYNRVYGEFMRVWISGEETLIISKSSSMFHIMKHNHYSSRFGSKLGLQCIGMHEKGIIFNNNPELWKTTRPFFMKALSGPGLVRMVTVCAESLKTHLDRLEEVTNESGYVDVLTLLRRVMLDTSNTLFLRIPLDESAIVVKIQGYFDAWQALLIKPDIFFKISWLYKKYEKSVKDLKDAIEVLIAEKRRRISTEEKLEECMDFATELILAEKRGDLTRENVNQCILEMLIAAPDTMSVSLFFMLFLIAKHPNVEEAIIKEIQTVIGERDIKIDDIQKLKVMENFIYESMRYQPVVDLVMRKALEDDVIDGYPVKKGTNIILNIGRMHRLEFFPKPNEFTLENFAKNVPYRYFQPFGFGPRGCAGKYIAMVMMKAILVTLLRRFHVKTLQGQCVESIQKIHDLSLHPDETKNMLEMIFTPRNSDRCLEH

Question: How did the IC50 turn out when C[C@]12CCC(=O)C(O)=C1CC[C@@H]1[C@@H]2CC[C@]2(C)C(=O)CC[C@@H]12 [formestane] was run?
Answer: The IC50 was 430 nM.

— publication PMC2737065 (Journal of the American Chemical Society, 2009)
